Measured values as given in ChEMBL document CHEMBL5634091, “Cantharidin analogue alleviates dextran sulfate sodium-induced colitis in mice by inhibiting the activation of NF-κB signaling” (Eur J Med Chem, 2023).
Active and inactive are the calls of the source. The rule behind the calls is not given here.

What was measured:
Mus musculus [1] = assay: Anti-inflammatory activity in C57BL/6 mouse model of DSS-induced acute ulcerative colitis assessed as increase in colon length at 100 to 300 mg/kg, po administered once a day for 7 days; format: functional, organism-based; settings: dose 100-300 mg/kg, time 7.0 day
[2] = Cytotoxicity against TNF-alpha induced HEK293T cells assessed as inhibition of cell growth preincubated for 24 hrs followed by TNFalpha stimulation and measured after 4 hrs by SRB assay; format: toxicity, cell-based, HEK-293T; settings: human, HEK293T cells induced with TNF-alpha; time 28 hrs
DLD-1 [3] = assay: Inhibition of TNF-alpha induced NF-kB activation in human DLD-1 cells assessed as decrease in phosphorylated p65 protein expression preincubated for 4 hrs and followed TNF-alpha stimulation and measured after 10 mins by Western blot analysis; format: cell-based; settings: dose 12.5-50 µM, time 250.0 min
HCT-116 [4] = assay: Inhibition of TNF-alpha induced activation of MAPK signaling pathway in human HCT-116 cells assessed as change in phosphorylated p38 level at 6.25 to 50 uM preincubated for 4 hrs and followed TNF-alpha stimulation and measured after 10 mins by Western blot analysis; format: cell-based; settings: dose 6.25-50 µM, time 250.0 min
[5] = molecular target: T1, NF-kappa-B inhibitor alpha (Homo sapiens) (UniProt P25963); assay: Inhibition of proteasomal degradation of IkappaBalpha in TNF-alpha induced human HCT-116 cells assessed as increase in IkappaBalpha protein expression at 12.5 to 50 uM preincubated for 4 hrs and followed TNF-alpha stimulation and measured after 10 mins by Western blot analysis; format: cell-based; settings: dose 12.5-50 µM, time 250.0 min
T1 sequence (whole entry): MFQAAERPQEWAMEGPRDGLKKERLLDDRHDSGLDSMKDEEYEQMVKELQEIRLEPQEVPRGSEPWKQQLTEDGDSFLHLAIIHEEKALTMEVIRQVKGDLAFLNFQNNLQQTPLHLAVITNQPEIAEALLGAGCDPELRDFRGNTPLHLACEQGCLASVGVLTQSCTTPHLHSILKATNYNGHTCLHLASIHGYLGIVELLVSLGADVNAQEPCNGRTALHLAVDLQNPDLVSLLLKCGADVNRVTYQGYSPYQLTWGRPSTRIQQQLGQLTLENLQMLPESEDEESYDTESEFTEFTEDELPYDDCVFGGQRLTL

HCT-116 [6] = assay: Upregulation of JNK protein expression in TNF-alpha stimulated human HCT-116 cells at 50 uM preincubated for 4 hrs and followed TNF-alpha stimulation and measured after 10 mins by Western blot analysis; format: functional, cell-based; settings: time 250.0 min
HCT-116 [7] = assay: Activation of MAPK signaling pathway in TNF-alpha stimulated human HCT-116 cells assessed as increase in phospho-JNK protein expression at 50 uM preincubated for 4 hrs and followed TNF-alpha stimulation and measured after 10 mins by Western blot analysis; format: cell-based; settings: filed as activator, time 250.0 min
Mus musculus [8] = assay: Anti-inflammatory activity in po dosed C57BL/6 mouse model of DSS-induced acute ulcerative colitis assessed as reduction in IL-6 mRNA expression in colon administered once a day for 7 days by RT-PCR analysis; format: functional, organism-based; settings: dose 100-300 mg/kg, time 7.0 day
Mus musculus [9] = assay: Anti-inflammatory activity in po dosed C57BL/6 mouse model of DSS-induced acute ulcerative colitis assessed as reduction in CCL2 mRNA expression in colon administered once a day for 7 days by RT-PCR analysis; format: functional, organism-based; settings: dose 100-300 mg/kg, time 7.0 day
Mus musculus [10] = assay: Anti-inflammatory activity in po dosed C57BL/6 mouse model of DSS-induced acute ulcerative colitis assessed as reduction in COX2 mRNA expression in colon administered once a day for 7 days by RT-PCR analysis; format: functional, organism-based; settings: dose 100-300 mg/kg, time 7.0 day
Mus musculus [11] = assay: Anti-inflammatory activity in C57BL/6 mouse model of DSS-induced acute ulcerative colitis assessed as increase in IL-10 mRNA expression in colon at 100 to 300 mg/kg, po administered once a day for 7 days by RT-PCR analysis; format: functional, organism-based; settings: dose 100-300 mg/kg, time 7.0 day
[12] = Toxicity in C57BL/6 mouse model of DSS-induced acute ulcerative colitis assessed as effect on stomach at 100 to 300 mg/kg, po administered once a day for 7 days by H and E staining based analysis; format: organism-based; settings: in vivo, 168 h, dose 100-300 mg/kg, time 7 day
DLD-1 [13] = assay: Cytotoxicity against human DLD-1 cells assessed as induction of stress response at 50 uM; format: toxicity, cell-based; settings: dld-1, 50 µM
[14] = Toxicity in Kunming mouse assessed as number of mouse survived at 667 mg/kg, po measured for 15 days; format: organism-based; settings: in vivo, 360 h, time 15 day

Structure (SMILES): COC(=O)C1=C(C(=O)OC)C2OC1CC2C#Cc1ccc(C)cc1 (centres undefined)
- Activity (Mus musculus [1]): Active
- CC50 at 4 h [2]: 94.3 µM
- inhibition (DLD-1 [3]): Dose-Dependent Effect
- inhibition (HCT-116 [4]): inactive
- inhibition [5]: Active
- Activity (HCT-116 [6]): Active
- Activity (HCT-116 [7]): Active
- Activity (Mus musculus [8]): Dose-Dependent Effect
- Activity (Mus musculus [9]): Dose-Dependent Effect
- Activity (Mus musculus [10]): Dose-Dependent Effect
- Activity (Mus musculus [11]): Active
- Activity [12]: Non-Toxic
- Activity (DLD-1 [13]): Toxic
- Activity [14]: 0
